The target in test [1] is Transient receptor potential cation channel subfamily A member 1 (Rattus norvegicus, UniProt Q6RI86). The experiment in a line: FLIPR Ca2+ assay (rat TRPA1).
Test [2] concerns the target Transient receptor potential cation channel subfamily V member 1 (Homo sapiens, UniProt Q8NER1). Briefly: TRP selectivity screen (TRPV1).
Test [3] concerns the target Short transient receptor potential channel 5 (Homo sapiens, UniProt Q9UL62). Briefly: TRP selectivity screen (TRPC5).
For test [4], the target named is Short transient receptor potential channel 6 (Homo sapiens, UniProt Q9Y210). Briefly: TRP selectivity screen (TRPC6).
The target in test [5] is T1, 5-hydroxytryptamine receptor 2C (Homo sapiens) (UniProt P28335).
T1 sequence (whole entry): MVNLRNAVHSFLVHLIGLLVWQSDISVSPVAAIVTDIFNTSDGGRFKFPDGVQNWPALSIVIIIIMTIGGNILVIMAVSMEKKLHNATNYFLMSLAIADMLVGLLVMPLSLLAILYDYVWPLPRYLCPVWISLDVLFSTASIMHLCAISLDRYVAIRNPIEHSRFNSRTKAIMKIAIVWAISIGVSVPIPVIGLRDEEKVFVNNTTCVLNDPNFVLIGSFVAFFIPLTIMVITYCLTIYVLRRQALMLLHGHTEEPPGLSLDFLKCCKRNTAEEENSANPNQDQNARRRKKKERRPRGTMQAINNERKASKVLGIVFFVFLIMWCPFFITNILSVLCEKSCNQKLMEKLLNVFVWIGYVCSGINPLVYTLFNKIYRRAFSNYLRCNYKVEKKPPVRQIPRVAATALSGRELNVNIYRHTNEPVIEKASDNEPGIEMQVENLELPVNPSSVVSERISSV
Conditions: Compound concentration 10.0 uM.

In test [6] the target is 5-hydroxytryptamine receptor 3A (Homo sapiens) (UniProt P46098). Conditions: Compound concentration 10.0 uM.
The target of test [7] is Sodium-dependent serotonin transporter (Homo sapiens) (UniProt P31645). Conditions: Compound concentration 10.0 uM.
Test [8] concerns the target T2, Sodium-dependent dopamine transporter (Homo sapiens, UniProt Q01959). Conditions: Compound concentration 10.0 uM.
Test [9] has as its target Mu-type opioid receptor (Homo sapiens) (UniProt P35372). Conditions: Compound concentration 10.0 uM.
For test [10], the target named is Kappa-type opioid receptor (Homo sapiens) (UniProt P41145). Conditions: Compound concentration 10.0 uM.
The next test deals with Histamine H2 receptor (Homo sapiens, UniProt P25021). Conditions: Compound concentration 10.0 uM.
The target in test [11] is Histamine H4 receptor (Homo sapiens) (UniProt Q9H3N8). Conditions: Compound concentration 10.0 uM.
The target in test [12] is Beta-1 adrenergic receptor (Homo sapiens) (UniProt P08588). Conditions: Compound concentration 10.0 uM.
The target in test [13] is Beta-2 adrenergic receptor (Homo sapiens) (UniProt P07550). Conditions: Compound concentration 10.0 uM.
The target of test [14] is Muscarinic acetylcholine receptor M3 (Homo sapiens) (UniProt P20309). Conditions: Compound concentration 10.0 uM.
Test [15] deals with T3, Muscarinic acetylcholine receptor M4 (Homo sapiens) (UniProt P08173).
T3 sequence (whole entry): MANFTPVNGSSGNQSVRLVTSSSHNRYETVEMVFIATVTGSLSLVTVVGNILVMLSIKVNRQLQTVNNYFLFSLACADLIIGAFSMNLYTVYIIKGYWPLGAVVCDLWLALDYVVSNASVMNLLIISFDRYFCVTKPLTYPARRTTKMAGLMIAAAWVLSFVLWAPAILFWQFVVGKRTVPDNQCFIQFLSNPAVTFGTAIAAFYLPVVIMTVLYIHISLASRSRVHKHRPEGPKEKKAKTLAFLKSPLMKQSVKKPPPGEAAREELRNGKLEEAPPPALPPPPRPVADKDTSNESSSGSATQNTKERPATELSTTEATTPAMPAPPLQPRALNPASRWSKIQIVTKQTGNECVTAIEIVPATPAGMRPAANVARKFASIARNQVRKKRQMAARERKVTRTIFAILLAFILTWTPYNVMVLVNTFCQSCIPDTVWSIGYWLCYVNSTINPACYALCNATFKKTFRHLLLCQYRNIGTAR
Conditions: Compound concentration 10.0 uM.

Test [16] addresses Beta-3 adrenergic receptor (Homo sapiens) (UniProt P13945). Conditions: Compound concentration 10.0 uM.
The target in test [17] is T4, GABA-A receptor; anion channel (Rattus norvegicus) (UniProt O09028+P15431+P18506+P18508+P19969+P20236+P23574+P23576+P28471+P28473+P30191+P62813+P63079+P63138+Q91ZM7+Q9ES14). Conditions: Compound concentration 10.0 uM.
Test [18] concerns the target Alpha-1D adrenergic receptor (Homo sapiens) (UniProt P25100). Conditions: Compound concentration 10.0 uM.
The target in test [19] is Sigma intracellular receptor 2 (Homo sapiens) (UniProt Q5BJF2). Conditions: Compound concentration 10.0 uM.
The target of test [20] is Beta-2 adrenergic receptor (Homo sapiens) (UniProt P07550). Conditions: Compound concentration 10.0 uM. This is another data set of the same source.
The target of test [21] is B2 bradykinin receptor (Homo sapiens) (UniProt P30411). Conditions: Compound concentration 10.0 uM.
Test [22] has as its target T2, Sodium-dependent dopamine transporter. Conditions: Compound concentration 10.0 uM. This is another data set of the same source.
In test [23] the target is T4, GABA-A receptor; anion channel (Rattus norvegicus). Conditions: Compound concentration 10.0 uM. The source holds these as a separate data set.
Test [24] deals with T1, 5-hydroxytryptamine receptor 2C (Homo sapiens). Conditions: Compound concentration 10.0 uM. The source holds these as a separate data set.
Test [25] addresses Type-1 angiotensin II receptor (Homo sapiens) (UniProt P30556). Conditions: Compound concentration 10.0 uM.
Test [26] deals with Cannabinoid receptor 2 (Homo sapiens) (UniProt P34972). Conditions: Compound concentration 10.0 uM.
Test [27] concerns the target Gamma-aminobutyric acid type B receptor subunit 1 (Homo sapiens) (UniProt Q9UBS5). Conditions: Rattus norvegicus; Compound concentration 10.0 uM.
Test [28] addresses Androgen receptor (Homo sapiens) (UniProt P10275). Conditions: Compound concentration 10.0 uM.
In test [29] the target is 5-hydroxytryptamine receptor 1E (Homo sapiens) (UniProt P28566). Conditions: Compound concentration 10.0 uM.

SMILES strings stand for the structures. Calls of active or inactive are those of the source. The calls are words filed in the database; no cut-off is given here. A value given as a limit tells only on which side of the number the result lay.

Drawing on ChEMBL document CHEMBL4507328, “Data for DCP probe BAY-390” (2021), this text covers IC50 and inhibition for two compounds.

Beta-2 adrenergic receptor (Homo sapiens), sequence (P07550 whole entry, looked up): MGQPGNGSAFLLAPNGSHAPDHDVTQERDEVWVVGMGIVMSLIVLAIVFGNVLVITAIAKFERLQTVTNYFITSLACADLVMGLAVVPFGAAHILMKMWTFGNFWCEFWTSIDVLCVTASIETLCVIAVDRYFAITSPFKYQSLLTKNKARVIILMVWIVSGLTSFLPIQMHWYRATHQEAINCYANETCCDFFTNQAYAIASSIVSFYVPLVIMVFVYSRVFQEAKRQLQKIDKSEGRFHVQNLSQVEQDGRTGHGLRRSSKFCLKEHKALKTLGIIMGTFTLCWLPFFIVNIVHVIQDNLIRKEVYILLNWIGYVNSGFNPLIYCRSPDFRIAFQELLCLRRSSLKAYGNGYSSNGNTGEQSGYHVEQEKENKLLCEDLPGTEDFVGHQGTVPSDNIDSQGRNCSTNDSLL
5-hydroxytryptamine receptor 3A (Homo sapiens), sequence (P46098 whole entry): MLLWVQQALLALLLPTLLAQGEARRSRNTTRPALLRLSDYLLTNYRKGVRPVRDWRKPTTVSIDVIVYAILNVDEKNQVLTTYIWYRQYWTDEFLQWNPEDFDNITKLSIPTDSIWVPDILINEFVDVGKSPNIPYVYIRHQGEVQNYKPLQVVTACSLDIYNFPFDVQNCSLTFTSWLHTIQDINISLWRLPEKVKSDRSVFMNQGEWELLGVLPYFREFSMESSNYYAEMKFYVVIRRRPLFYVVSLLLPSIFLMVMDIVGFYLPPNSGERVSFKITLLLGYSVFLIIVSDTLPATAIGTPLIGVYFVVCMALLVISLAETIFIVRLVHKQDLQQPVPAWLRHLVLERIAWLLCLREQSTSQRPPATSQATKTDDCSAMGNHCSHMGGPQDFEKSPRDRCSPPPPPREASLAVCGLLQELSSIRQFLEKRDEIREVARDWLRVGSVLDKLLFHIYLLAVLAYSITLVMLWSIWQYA
Short transient receptor potential channel 5, sequence (Q9UL62 whole entry): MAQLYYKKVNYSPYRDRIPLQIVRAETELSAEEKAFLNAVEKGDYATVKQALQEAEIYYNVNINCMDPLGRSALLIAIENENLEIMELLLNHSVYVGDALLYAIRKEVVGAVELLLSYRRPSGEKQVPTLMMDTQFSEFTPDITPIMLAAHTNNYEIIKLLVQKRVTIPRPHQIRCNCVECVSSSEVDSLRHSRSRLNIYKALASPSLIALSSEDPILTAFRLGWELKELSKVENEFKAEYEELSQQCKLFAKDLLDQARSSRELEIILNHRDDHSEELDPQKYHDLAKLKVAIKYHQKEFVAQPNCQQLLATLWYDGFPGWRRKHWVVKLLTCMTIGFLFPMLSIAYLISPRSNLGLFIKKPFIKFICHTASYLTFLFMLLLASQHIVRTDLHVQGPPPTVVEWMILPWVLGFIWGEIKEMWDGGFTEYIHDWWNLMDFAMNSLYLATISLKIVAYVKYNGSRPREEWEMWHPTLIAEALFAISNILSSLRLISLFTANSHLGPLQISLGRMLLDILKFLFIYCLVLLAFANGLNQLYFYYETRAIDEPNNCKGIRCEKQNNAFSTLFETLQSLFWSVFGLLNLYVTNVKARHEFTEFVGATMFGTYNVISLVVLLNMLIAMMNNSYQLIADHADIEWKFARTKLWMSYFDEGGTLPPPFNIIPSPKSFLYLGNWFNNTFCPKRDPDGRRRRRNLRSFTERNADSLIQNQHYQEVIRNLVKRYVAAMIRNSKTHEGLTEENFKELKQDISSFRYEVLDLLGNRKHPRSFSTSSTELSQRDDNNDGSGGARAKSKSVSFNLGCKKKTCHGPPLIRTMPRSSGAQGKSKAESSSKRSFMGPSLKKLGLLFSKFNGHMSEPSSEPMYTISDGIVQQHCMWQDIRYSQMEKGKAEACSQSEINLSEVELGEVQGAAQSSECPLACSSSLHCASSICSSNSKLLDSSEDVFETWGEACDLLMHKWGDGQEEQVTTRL
Beta-1 adrenergic receptor (Homo sapiens), sequence (P08588 whole entry, looked up): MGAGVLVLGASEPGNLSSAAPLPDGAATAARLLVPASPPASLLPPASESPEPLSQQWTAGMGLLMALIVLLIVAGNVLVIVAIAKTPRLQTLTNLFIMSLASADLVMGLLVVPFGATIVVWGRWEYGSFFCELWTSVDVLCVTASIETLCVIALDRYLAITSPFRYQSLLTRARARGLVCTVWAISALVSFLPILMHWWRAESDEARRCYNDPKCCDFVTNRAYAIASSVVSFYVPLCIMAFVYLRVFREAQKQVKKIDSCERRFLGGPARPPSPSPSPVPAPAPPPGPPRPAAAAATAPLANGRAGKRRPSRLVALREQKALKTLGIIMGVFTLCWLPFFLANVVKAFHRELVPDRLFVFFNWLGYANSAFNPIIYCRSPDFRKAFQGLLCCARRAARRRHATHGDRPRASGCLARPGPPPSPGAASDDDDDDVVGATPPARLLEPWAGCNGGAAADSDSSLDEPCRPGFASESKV
Beta-3 adrenergic receptor (Homo sapiens), sequence (P13945 whole entry, looked up): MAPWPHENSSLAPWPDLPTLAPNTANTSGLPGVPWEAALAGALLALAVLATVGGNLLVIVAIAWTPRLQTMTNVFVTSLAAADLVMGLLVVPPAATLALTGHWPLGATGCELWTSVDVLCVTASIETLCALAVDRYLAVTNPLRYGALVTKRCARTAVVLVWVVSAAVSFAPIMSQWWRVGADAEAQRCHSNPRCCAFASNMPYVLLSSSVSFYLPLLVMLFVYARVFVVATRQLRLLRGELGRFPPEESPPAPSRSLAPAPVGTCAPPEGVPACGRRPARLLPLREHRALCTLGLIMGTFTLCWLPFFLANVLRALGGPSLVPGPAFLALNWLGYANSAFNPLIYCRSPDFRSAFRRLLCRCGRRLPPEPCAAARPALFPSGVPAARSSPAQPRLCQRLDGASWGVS
Sodium-dependent serotonin transporter (Homo sapiens), sequence (P31645 whole entry, looked up): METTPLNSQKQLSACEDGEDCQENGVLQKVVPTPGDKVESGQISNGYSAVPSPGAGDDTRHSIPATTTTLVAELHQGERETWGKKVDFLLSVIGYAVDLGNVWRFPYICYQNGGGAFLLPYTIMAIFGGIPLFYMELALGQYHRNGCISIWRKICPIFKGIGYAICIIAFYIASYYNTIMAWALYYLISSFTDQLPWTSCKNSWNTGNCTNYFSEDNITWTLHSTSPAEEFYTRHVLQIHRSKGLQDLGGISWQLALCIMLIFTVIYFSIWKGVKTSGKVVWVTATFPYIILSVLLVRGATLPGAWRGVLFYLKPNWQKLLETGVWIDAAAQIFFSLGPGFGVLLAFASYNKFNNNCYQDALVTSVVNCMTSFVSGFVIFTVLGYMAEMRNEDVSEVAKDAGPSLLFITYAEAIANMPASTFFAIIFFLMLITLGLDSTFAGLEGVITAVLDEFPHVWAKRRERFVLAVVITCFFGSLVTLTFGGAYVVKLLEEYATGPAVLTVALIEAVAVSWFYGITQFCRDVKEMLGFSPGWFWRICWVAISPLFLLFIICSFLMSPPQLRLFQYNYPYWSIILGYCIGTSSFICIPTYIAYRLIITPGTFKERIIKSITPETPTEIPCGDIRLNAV
Muscarinic acetylcholine receptor M3 (Homo sapiens), sequence (P20309 whole entry, looked up): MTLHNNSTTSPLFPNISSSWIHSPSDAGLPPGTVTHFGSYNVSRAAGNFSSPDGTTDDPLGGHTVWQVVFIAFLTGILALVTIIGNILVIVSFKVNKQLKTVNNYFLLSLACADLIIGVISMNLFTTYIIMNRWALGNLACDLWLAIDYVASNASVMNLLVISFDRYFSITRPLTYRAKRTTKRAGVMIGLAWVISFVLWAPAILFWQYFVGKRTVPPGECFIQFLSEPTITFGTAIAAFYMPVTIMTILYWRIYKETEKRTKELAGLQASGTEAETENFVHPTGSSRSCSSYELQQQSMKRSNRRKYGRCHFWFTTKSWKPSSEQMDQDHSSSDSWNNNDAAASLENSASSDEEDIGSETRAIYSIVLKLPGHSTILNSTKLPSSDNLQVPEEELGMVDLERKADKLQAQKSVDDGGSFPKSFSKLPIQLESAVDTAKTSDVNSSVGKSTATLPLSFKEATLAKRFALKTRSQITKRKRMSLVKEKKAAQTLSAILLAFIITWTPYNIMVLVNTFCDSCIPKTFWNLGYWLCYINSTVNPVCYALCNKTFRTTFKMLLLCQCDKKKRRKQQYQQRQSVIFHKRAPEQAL
T2 sequence (Q01959 whole entry): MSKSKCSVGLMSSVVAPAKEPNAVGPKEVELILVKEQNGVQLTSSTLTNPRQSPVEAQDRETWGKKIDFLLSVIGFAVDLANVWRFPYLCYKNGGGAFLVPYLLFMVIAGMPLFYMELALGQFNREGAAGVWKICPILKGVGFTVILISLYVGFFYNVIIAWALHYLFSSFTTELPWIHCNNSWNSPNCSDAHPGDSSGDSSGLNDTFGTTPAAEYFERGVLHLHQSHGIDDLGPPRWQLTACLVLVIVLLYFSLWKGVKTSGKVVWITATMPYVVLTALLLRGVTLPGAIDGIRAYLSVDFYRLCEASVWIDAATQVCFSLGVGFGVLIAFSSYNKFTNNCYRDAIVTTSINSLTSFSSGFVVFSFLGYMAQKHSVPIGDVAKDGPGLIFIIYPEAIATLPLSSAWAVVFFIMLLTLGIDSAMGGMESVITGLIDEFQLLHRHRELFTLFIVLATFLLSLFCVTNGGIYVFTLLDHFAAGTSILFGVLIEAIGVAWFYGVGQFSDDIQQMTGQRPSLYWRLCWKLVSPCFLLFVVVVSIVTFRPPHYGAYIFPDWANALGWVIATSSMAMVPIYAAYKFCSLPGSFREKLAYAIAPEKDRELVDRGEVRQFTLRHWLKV
Histamine H2 receptor, sequence (P25021 whole entry): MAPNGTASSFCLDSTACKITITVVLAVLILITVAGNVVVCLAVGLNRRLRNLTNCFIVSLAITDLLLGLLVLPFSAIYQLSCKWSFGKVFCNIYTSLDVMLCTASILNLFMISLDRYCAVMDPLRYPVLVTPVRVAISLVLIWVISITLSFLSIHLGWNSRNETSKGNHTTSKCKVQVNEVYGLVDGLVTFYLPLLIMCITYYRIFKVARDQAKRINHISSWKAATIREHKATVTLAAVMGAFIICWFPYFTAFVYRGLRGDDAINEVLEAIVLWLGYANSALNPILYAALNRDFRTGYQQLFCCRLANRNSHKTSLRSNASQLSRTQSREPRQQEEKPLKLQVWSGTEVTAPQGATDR

On to `O[C@]1(C(F)(F)F)CCCC[C@H]1Nc1ccc(F)cc1` [BAY-390], for which the half-maximal inhibitory concentration (IC50) in test [1] was 0.063 µM (active); in test [2], > 25 µM (not active); in test [3], 5.6 µM (not active); in test [4], > 25 µM (not active). Moreover, the inhibition was 23.4% in [5]; 39% in [6]; -0.01% in [7]; 56.5% in [8]; 6.05% in test [9]; 9.94% in [10]. In addition, the inhibition was -1.07% on Histamine H2 receptor; 15.6% in test [11]; 20.2% in test [12]; 7.94% in test [13]; 4.73% in test [14]; 13.9% in [15]. In addition, the inhibition is 31% in [16]; 4.57% in test [17]; -2.73% in test [18]; 8.95% in test [19]; 11% in test [20]; 4% in [21]. Besides, the inhibition was 84% in test [22]; -8% in [23]; 3% in [24]; 4% in [25]; 21% in [26]; 3% in [27]. Also, in test [28], the inhibition is 47%.
With `COc1cc(N[C@@H]2CCCC[C@]2(O)C(F)(F)F)ccc1F` [BAY-9897], the concentration for half-maximal inhibition (IC50) in test [1] is listed as > 25 µM (not active); in test [2], > 25 µM (not active); in test [3], 10 µM (not active); in [4], > 30 µM (not active). Further, the inhibition in test [29] is -4.13%; in [5], -0.76%; in [6], 11.6%; in test [7] it was 15.6%; in test [9] it was 10.3%; in [10], 10.5%. For the same compound, the inhibition is 89% on Histamine H2 receptor; -0.24% in test [12]; 22.2% in [13]; 25.6% in test [14]; -3.95% in test [15]; 34.2% in [16]. Also, the inhibition in test [17] is 5.42%; in test [18] it was -4.64%; in [19] it was 27.8%.
